This note sets out measurements from patent publication US20070128217A1 (priority 2003, published 2007).

Experiment [1] deals with antibodies in sera from SARS patients (sera 1a, 1b, 2, 6, 37, 62, London, SARS-yellow, SARS-green). In kind it is binding, human. Also noted: Binding of serum 6 to linear peptides of protein X1 of SARS-CoV Urbani / Binding of serum 37 to linear peptides of protein X1 of SARS-CoV Urbani / Binding of serum 6 to looped/cyclic peptide (PEPSCAN-ELISA) / Binding of serum 37 to looped/cyclic peptide (PEPSCAN-ELISA) / Binding of serum 37 to looped/cyclic peptides of protein X1 of SARS-CoV Urbani / Binding of serum 6 to linear peptides of protein X2 / Binding of serum 37 to linear peptides of protein X2 / Binding of serum 37 to looped/cyclic peptides of protein X2 of SARS-CoV Urbani / Binding of serum 6 to linear peptides of protein M of SARS-CoV Urbani / Binding of serum 37 to linear peptides of protein M of SARS-CoV Urbani / Binding of serum 6 to looped/cyclic peptides of protein M of SARS-CoV Urbani / Binding of serum 37 to looped/cyclic peptides of protein M of SARS-CoV Urbani / Binding of serum 6 to linear peptides of protein X3 of SARS-CoV Urbani / Binding of serum 37 to linear peptides of protein X3 of SARS-CoV Urbani / Binding of serum 37 to looped/cyclic peptides of protein X3 of SARS-CoV Urbani / Binding of serum 6 to linear peptides of protein X4 of SARS-CoV Urbani / Binding of serum 37 to linear peptides of protein X4 of SARS-CoV Urbani / Binding of serum 37 to looped/cyclic peptides of protein X4 of SARS-CoV Urbani / Binding of serum 6 to linear peptides of protein X5 of SARS-CoV Urbani / Binding of serum 37 to linear peptides of protein X5 of SARS-CoV Urbani / Binding of serum 37 to looped/cyclic peptides of protein X5 of SARS-CoV Urbani / Binding of serum 6 to linear peptides of protein N of SARS-CoV Urbani / Binding of serum 37 to linear peptides of protein N of SARS-CoV Urbani / Binding of serum 6 to linear peptide (PEPSCAN-ELISA) / Binding of serum 1a to looped/cyclic peptides of protein N of SARS-CoV Urbani / Binding of serum 1b to looped/cyclic peptides of protein N of SARS-CoV Urbani / Binding of serum 2 to looped/cyclic peptides of protein N of SARS-CoV Urbani / Binding of serum 6 to looped/cyclic peptides of protein N of SARS-CoV Urbani / Binding of serum 37 to looped/cyclic peptides of protein N of SARS-CoV Urbani / Binding of serum 62 to looped/cyclic peptides of protein N of SARS-CoV Urbani / Binding of serum London to looped/cyclic peptides of protein N of SARS-CoV Urbani / Binding of serum SARS-green to looped/cyclic peptides of protein N of SARS-CoV Urbani: unit not given here.

In experiment [2] the test system is control sera (pooled serum of ten healthy LUMC hospital workers; commercial negative donor pooled serum from the Dutch bloodbank). Format: binding, human. Details: Binding of Control serum LUMC to linear peptides / Binding of Control serum Blood-bank to linear peptides / Binding of Control serum LUMC to looped peptides / Binding of Control Serum Blood-Bank to Looped peptides / Binding of Control serum LUMC to linear peptides of the protein M of SARS-CoV Urbani / Binding of Control serum Blood-bank to linear peptides of the protein M of SARS-CoV Urbani / Binding of Control serum LUMC to looped peptides of the protein M of SARS-CoV Urbani / Binding of Control Serum Blood-Bank to Looped peptides of the protein M of SARS-CoV Urbani: unit not given here.

Experiment [3] concerns rabbit serum obtained by immunizing a rabbit with the SARS-CoV strain Frankfurt 1. Format: binding. Details: Binding of a rabbit serum to linear peptides / Binding of a rabbit serum to looped peptides / Rabbit serum linear peptides / Rabbit serum looped peptides / Binding of a rabbit serum to linear peptides of protein N of SARS-CoV Urbani (Rabbit serum linear peptides) / Binding of a rabbit serum to looped/cyclic peptides of protein N of SARS-CoV Urbani (Rabbit serum looped peptides): unit not given here.

FVASFRLFARTRSMW: in experiment [1], the “Binding of serum 1a to linear peptides of protein M of SARS-CoV Urbani” value amounted to 0.9, the “Binding of serum 1b to linear peptides of protein M of SARS-CoV Urbani” value turned out to be 1.1, the “Binding of serum 2 to linear peptides of protein M of SARS-CoV Urbani” value was 0.7 and the “Binding of serum 6 to linear peptides of protein M of SARS-CoV Urbani” value came to 1.3. In addition, in experiment [1], the “Binding of serum 37 to linear peptides of protein M of SARS-CoV Urbani” value is reported as 0.6, the “Binding of serum 62 to linear peptides of protein M of SARS-CoV Urbani” value stood at 0.6, the “Binding of serum London to linear peptides of protein M of SARS-CoV Urbani” value is 0.9 and the “Binding of serum SARS-green to linear peptides of protein M of SARS-CoV Urbani” value is 0.7. In experiment [1], the “Binding of serum SARS-yellow to linear peptides of protein M of SARS-CoV Urbani” value came to 0.3; the “Recognition of the peptide by sera of SARS-CoV infected individuals, and form (linear, looped/cyclic) in which it is recognized” value is recorded as “recognized in looped/cyclic form”. In experiment [2], the “Binding of Control Serum Blood-Bank to Looped peptides of the protein M of SARS-CoV Urbani” value amounted to 0.6, the “Binding of Control serum Blood-bank to linear peptides of the protein M of SARS-CoV Urbani” value stood at 0.9, the “Binding of Control serum LUMC to linear peptides of the protein M of SARS-CoV Urbani” value was 1.0 and the “Binding of Control serum LUMC to looped peptides of the protein M of SARS-CoV Urbani” value amounted to 0.7. Further, in experiment [3], the “Rabbit serum linear peptides” value stood at 0.2 and the “Rabbit serum looped peptides” value is given as 0.3.

FVTIYSHLLLVAAGM: in experiment [1], the “Binding of serum 1a to linear peptides of protein X1 of SARS-CoV Urbani” value is 0.7, the “Binding of serum 1a to looped/cyclic peptide (PEPSCAN-ELISA)” value stood at 0.5, the “Binding of serum 1b to linear peptides of protein X1 of SARS-CoV Urbani” value is on record as 0.5 and the “Binding of serum 1b to looped/cyclic peptide (PEPSCAN-ELISA)” value was determined as 0.3. Further, in experiment [1], the “Binding of serum 2 to linear peptides of protein X1 of SARS-CoV Urbani” value is 0.6, the “Binding of serum 2 to looped/cyclic peptide (PEPSCAN-ELISA)” value came to 0.3, the “Binding of serum 6 to linear peptides of protein X1 of SARS-CoV Urbani” value stood at 0.4 and the “Binding of serum 6 to looped/cyclic peptide (PEPSCAN-ELISA)” value is 0.3. For the same sequence, in experiment [1], the “Binding of serum 37 to linear peptides of protein X1 of SARS-CoV Urbani” value turned out to be 0.5, the “Binding of serum 37 to looped/cyclic peptide (PEPSCAN-ELISA)” value turned out to be 0.5, the “Binding of serum 62 to linear peptides of protein X1 of SARS-CoV Urbani” value was determined as 0.5 and the “Binding of serum 62 to looped/cyclic peptide (PEPSCAN-ELISA)” value was found to be 0.5. Besides, in experiment [1], the “Binding of serum London to linear peptides of protein X1 of SARS-CoV Urbani” value is 0.2, the “Binding of serum London to looped/cyclic peptide (PEPSCAN-ELISA)” value is reported as 0.2, the “Binding of serum SARS-green to linear peptides of protein X1 of SARS-CoV Urbani” value is 0.3 and the “Binding of serum SARS-green to looped/cyclic peptide (PEPSCAN-ELISA)” value is recorded as 0.2. For the same sequence, in experiment [1], the “Binding of serum SARS-yellow to linear peptides of protein X1 of SARS-CoV Urbani” value is recorded as 0.5 and the “Binding of serum SARS-yellow to looped/cyclic peptide (PEPSCAN-ELISA)” value was 0.3. In addition, in experiment [2], the “Binding of Control Serum Blood-Bank to Looped peptides” value is 0.6, the “Binding of Control serum Blood-bank to linear peptides” value amounted to 0.6, the “Binding of Control serum LUMC to linear peptides” value worked out at 0.5 and the “Binding of Control serum LUMC to looped peptides” value was 0.5. Besides, in experiment [3], the “Binding of a rabbit serum to linear peptides” value is 0.1 and the “Binding of a rabbit serum to looped peptides” value is recorded as 0.5.

GALIARCWYLHEGHQ: in experiment [1], the “Binding of serum 1a to linear peptides of protein X5 of SARS-CoV Urbani” value turned out to be 0.7, the “Binding of serum 1a to looped/cyclic peptides of protein X5 of SARS-CoV Urbani” value is given as 0.4, the “Binding of serum 1b to linear peptides of protein X5 of SARS-CoV Urbani” value was 0.6 and the “Binding of serum 1b to looped/cyclic peptides of protein X5 of SARS-CoV Urbani” value is 0.4. Further, in experiment [1], the “Binding of serum 2 to linear peptides of protein X5 of SARS-CoV Urbani” value amounted to 0.6, the “Binding of serum 2 to looped/cyclic peptides of protein X5 of SARS-CoV Urbani” value came to 0.7, the “Binding of serum 6 to linear peptides of protein X5 of SARS-CoV Urbani” value is listed as 0.7 and the “Binding of serum 6 to looped/cyclic peptides of protein X5 of SARS-CoV Urbani” value turned out to be 0.3. Moreover, in experiment [1], the “Binding of serum 37 to linear peptides of protein X5 of SARS-CoV Urbani” value is on record as 0.7, the “Binding of serum 37 to looped/cyclic peptides of protein X5 of SARS-CoV Urbani” value is recorded as 0.4, the “Binding of serum 62 to linear peptides of protein X5 of SARS-CoV Urbani” value was found to be 0.7 and the “Binding of serum 62 to looped/cyclic peptides of protein X5 of SARS-CoV Urbani” value was determined as 0.3. Besides, in experiment [1], the “Binding of serum London to linear peptides of protein X5 of SARS-CoV Urbani” value stood at 0.6, the “Binding of serum London to looped/cyclic peptides of protein X5 of SARS-CoV Urbani” value stood at 0.1, the “Binding of serum SARS-green to linear peptides of protein X5 of SARS-CoV Urbani” value is reported as 0.6 and the “Binding of serum SARS-green to looped/cyclic peptides of protein X5 of SARS-CoV Urbani” value was 0.8. In experiment [1], the “Binding of serum SARS-yellow to linear peptides of protein X5 of SARS-CoV Urbani” value worked out at 0.1 and the “Binding of serum SARS-yellow to looped/cyclic peptides of protein X5 of SARS-CoV Urbani” value is given as 0.3. Moreover, in experiment [2], the “Binding of Control Serum Blood-Bank to Looped peptides” value was found to be 0.3, the “Binding of Control serum Blood-bank to linear peptides” value was 0.6, the “Binding of Control serum LUMC to linear peptides” value is recorded as 0.4 and the “Binding of Control serum LUMC to looped peptides” value is 0.2. In experiment [3], the “Rabbit serum linear peptides” value turned out to be 0.6 and the “Rabbit serum looped peptides” value was found to be 0.0.

Consider GKVLPFHRWHTMVQT, for which, in experiment [1], the “Binding of serum 1a to linear peptides of protein X5 of SARS-CoV Urbani” value was 0.8, the “Binding of serum 1a to looped/cyclic peptides of protein X5 of SARS-CoV Urbani” value stood at 0.8, the “Binding of serum 1b to linear peptides of protein X5 of SARS-CoV Urbani” value was 0.0 and the “Binding of serum 1b to looped/cyclic peptides of protein X5 of SARS-CoV Urbani” value is on record as 0.5. Also, in experiment [1], the “Binding of serum 2 to linear peptides of protein X5 of SARS-CoV Urbani” value is listed as 0.6, the “Binding of serum 2 to looped/cyclic peptides of protein X5 of SARS-CoV Urbani” value is recorded as 0.6, the “Binding of serum 6 to linear peptides of protein X5 of SARS-CoV Urbani” value was 0.3 and the “Binding of serum 6 to looped/cyclic peptides of protein X5 of SARS-CoV Urbani” value is 0.4. Also, in experiment [1], the “Binding of serum 37 to linear peptides of protein X5 of SARS-CoV Urbani” value came out at 0.5, the “Binding of serum 37 to looped/cyclic peptides of protein X5 of SARS-CoV Urbani” value amounted to 0.6, the “Binding of serum 62 to linear peptides of protein X5 of SARS-CoV Urbani” value is recorded as 0.8 and the “Binding of serum 62 to looped/cyclic peptides of protein X5 of SARS-CoV Urbani” value worked out at 0.5. Besides, in experiment [1], the “Binding of serum London to linear peptides of protein X5 of SARS-CoV Urbani” value is given as 0.8, the “Binding of serum London to looped/cyclic peptides of protein X5 of SARS-CoV Urbani” value was 0.3, the “Binding of serum SARS-green to linear peptides of protein X5 of SARS-CoV Urbani” value is recorded as 0.3 and the “Binding of serum SARS-green to looped/cyclic peptides of protein X5 of SARS-CoV Urbani” value is 0.5. In addition, in experiment [1], the “Binding of serum SARS-yellow to linear peptides of protein X5 of SARS-CoV Urbani” value is 0.1 and the “Binding of serum SARS-yellow to looped/cyclic peptides of protein X5 of SARS-CoV Urbani” value is 0.4. In experiment [2], the “Binding of Control Serum Blood-Bank to Looped peptides” value came to 0.5, the “Binding of Control serum Blood-bank to linear peptides” value was determined as 0.6, the “Binding of Control serum LUMC to linear peptides” value is on record as 0.3 and the “Binding of Control serum LUMC to looped peptides” value stood at 0.5. In experiment [3], the “Rabbit serum linear peptides” value was 0.0 and the “Rabbit serum looped peptides” value was found to be 0.3.
